Results as given in ChEMBL document CHEMBL1795309, “Thiophenyl oxime-derived phosphonates as nano-molar class C beta-lactamase inhibitors reducing MIC of imipenem against Pseudomonas aeruginosa and Acinetobacter baumannii” (Bioorg Med Chem Lett, 2011).
Activity calls are given as the source filed them. The calls are words filed in the database; no cut-off is given here.

Assays:
Beta-lactamase SHV-5 = Beta-lactamase SHV-5 (Klebsiella pneumoniae, UniProt P0A3M1); test: Inhibition of Klebsiella pneumoniae beta lactamase SHV-5
Beta-lactamase SHV-5, sequence (P0A3M1 whole entry): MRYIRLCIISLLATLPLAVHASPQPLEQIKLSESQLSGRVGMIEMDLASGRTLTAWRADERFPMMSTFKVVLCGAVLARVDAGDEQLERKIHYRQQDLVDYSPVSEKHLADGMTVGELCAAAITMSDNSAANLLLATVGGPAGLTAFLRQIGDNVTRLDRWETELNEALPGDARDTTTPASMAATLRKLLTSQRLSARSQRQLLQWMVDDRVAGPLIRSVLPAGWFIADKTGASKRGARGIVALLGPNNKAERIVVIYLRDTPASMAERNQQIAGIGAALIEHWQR

Beta-lactamase [1] = biological target: Beta-lactamase (Pseudomonas aeruginosa (strain ATCC 15692 / PAO1 / 1C / PRS 101 / LMG12228), UniProt P24735); test: Inhibition of Pseudomonas aeruginosa beta lactamase AmpC
Beta-lactamase (Pseudomonas aeruginosa (strain ATCC 15692 / PAO1 / 1C / PRS 101 / LMG12228), UniProt P24735), sequence (P24735 whole entry): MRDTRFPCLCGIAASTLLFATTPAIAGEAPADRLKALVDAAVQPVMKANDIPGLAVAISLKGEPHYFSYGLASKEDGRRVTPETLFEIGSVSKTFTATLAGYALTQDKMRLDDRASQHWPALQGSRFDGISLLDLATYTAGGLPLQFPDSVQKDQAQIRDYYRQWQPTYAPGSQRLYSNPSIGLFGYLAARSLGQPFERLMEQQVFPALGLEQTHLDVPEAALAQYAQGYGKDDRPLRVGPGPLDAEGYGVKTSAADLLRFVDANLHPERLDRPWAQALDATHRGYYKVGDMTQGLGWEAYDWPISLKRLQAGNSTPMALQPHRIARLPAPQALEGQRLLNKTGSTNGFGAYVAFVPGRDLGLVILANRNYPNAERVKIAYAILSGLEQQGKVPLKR

Beta-lactamase [2] = biological target: Beta-lactamase (Enterobacter cloacae, UniProt P05364); test: Inhibition of Enterobacter cloacae beta lactamase P99
Beta-lactamase (Enterobacter cloacae, UniProt P05364), sequence (P05364 whole entry): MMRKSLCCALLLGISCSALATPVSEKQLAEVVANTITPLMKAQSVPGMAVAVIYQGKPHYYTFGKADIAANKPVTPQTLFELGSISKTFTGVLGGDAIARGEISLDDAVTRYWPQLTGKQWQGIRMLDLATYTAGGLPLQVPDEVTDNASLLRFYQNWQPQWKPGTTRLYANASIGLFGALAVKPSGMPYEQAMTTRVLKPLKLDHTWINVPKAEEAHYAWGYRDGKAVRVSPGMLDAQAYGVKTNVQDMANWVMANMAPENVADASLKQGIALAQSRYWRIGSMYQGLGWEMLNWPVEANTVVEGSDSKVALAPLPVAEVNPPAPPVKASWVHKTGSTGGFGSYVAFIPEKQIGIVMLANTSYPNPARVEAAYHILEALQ

Beta-lactamase [3] = biological target: Beta-lactamase (Acinetobacter baumannii, UniProt Q8RLA6); test: Inhibition of Acinetobacter baumannii beta lactamase OXA-40
Beta-lactamase (Acinetobacter baumannii, UniProt Q8RLA6), sequence (Q8RLA6 whole entry): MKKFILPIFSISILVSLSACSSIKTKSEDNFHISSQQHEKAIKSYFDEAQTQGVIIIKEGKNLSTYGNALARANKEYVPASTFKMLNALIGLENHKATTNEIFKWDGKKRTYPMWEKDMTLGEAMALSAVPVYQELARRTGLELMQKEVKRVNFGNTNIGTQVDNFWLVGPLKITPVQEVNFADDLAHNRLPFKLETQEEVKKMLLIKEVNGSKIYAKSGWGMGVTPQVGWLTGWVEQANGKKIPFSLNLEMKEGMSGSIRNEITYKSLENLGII

[4] = Inhibition of Pseudomonas aeruginosa beta lactamase TEM-1
Pseudomonas aeruginosa [5] = test: Antimicrobial activity against imipenem-resistant Pseudomonas aeruginosa expressing beta lactamase AmpC assessed as reduction in imipenim MIC up to 100 uM; type: functional, organism-based
Pseudomonas aeruginosa [6] = test: Antimicrobial activity against imipenem-resistant Pseudomonas aeruginosa expressing beta lactamase AmpC assessed as reduction in imipenim MIC; type: functional, organism-based
Pseudomonas aeruginosa [7] = test: Antimicrobial activity against imipenem-resistant Pseudomonas aeruginosa expressing beta lactamase AmpC up to 100 uM; type: functional, organism-based
Acinetobacter baumannii [8] = test: Antimicrobial activity against imipenem-resistant Acinetobacter baumannii CL6188 assessed as reduction in imipenim MIC; type: functional, organism-based
Acinetobacter baumannii [9] = test: Antimicrobial activity against imipenem-resistant Acinetobacter baumannii CL6188 at 100 uM; type: functional, organism-based
[10] = Half life in mouse at 2.5 mg/kg, iv; type: ADME, organism-based; design: dose 2.5 mg/kg, route intravenous; details: in vivo
Mus musculus = test: Dose normalized AUC in mouse at 2.5 mg/kg, iv; type: ADME, organism-based; design: dose 2.5 mg/kg, route intravenous; details: in vivo
[11] = Clearance in mouse at 2.5 mg/kg, iv; type: ADME, organism-based; design: dose 2.5 mg/kg, route intravenous; details: in vivo
[12] = Volume of distribution in mouse at 2.5 mg/kg, iv; type: ADME, organism-based; design: dose 2.5 mg/kg, route intravenous; details: in vivo

`CO/N=C(\C(=O)NCP(=O)(O)Oc1ccc(C#N)c(F)c1)c1cnc(NC(=O)C(Cl)(Cl)Cl)s1` (stereo in doubt; 2b) showed an IC50 (Beta-lactamase SHV-5) of 15 µM, an IC50 (Beta-lactamase [1]) of 3 µM and an IC50 (Beta-lactamase [2]) of 0.71 µM. For the same compound, the IC50 (Beta-lactamase [3]) was > 12.5 µM.

In the case of `CO/N=C(/C(=O)NCP(=O)(O)O)c1cccs1`, the IC50 [4] is reported as > 50 µM, the IC50 (Beta-lactamase SHV-5) is reported as > 50 µM and the IC50 (Beta-lactamase [1]) is reported as 3.2 µM. The IC50 (Beta-lactamase [2]) was 3 µM and the IC50 (Beta-lactamase [3]) was > 50 µM.

With `CO/N=C(\C(=O)NCP(=O)(O)O)c1cccs1` the IC50 [4] was > 50 µM, the IC50 (Beta-lactamase SHV-5) was > 50 µM and the IC50 (Beta-lactamase [1]) was 6.5 µM. For the same compound, the IC50 (Beta-lactamase [2]) was 21 µM and the IC50 (Beta-lactamase [3]) was > 50 µM.

For `CON=C(C(=O)NCP(=O)(O)Oc1ccc(C#N)c(F)c1)c1cccs1`, the IC50 [4] was > 50 µM, the IC50 (Beta-lactamase SHV-5) was > 50 µM and the IC50 (Beta-lactamase [1]) was 0.0096 µM. The IC50 (Beta-lactamase [2]) was 0.039 µM and the IC50 (Beta-lactamase [3]) was > 50 µM.

With `CO/N=C(\C(=O)NCP(=O)(O)Oc1ccc(C#N)c(F)c1)c1cnc(NC(=O)C(Cl)(Cl)Cl)s1` (stereo in doubt; 2a) the IC50 [4] was > 50 µM, the IC50 (Beta-lactamase SHV-5) was 25 µM and the IC50 (Beta-lactamase [1]) was 3 µM. For the same compound, the IC50 (Beta-lactamase [2]) was 0.34 µM and the IC50 (Beta-lactamase [3]) was > 12.5 µM.

In the case of `N#Cc1ccc(OP(=O)([O-])CNC(=O)/C(=N\OCCC[n+]2ccccc2)c2cccs2)cc1F` (stereo in doubt; 6a), the IC50 [4] is reported as 17 µM, the IC50 (Beta-lactamase SHV-5) is reported as > 50 µM and the IC50 (Beta-lactamase [1]) is reported as 0.021 µM. The IC50 (Beta-lactamase [2]) was 0.087 µM and the IC50 (Beta-lactamase [3]) was 27 µM.

For `N#Cc1ccc(OP(=O)(O)CNC(=O)C(=NO)c2cccs2)cc1F`, the IC50 [4] was 23 µM, the IC50 (Beta-lactamase SHV-5) was 27 µM and the IC50 (Beta-lactamase [1]) was 0.2 µM. It also gave an IC50 (Beta-lactamase [2]) of 0.1 µM and an IC50 (Beta-lactamase [3]) of 21 µM.

In the case of `CO/N=C(\C(=O)NCP(=O)(O)Oc1ccc(C#N)c(F)c1)c1cccs1`, the IC50 [4] is reported as > 50 µM, the IC50 (Beta-lactamase SHV-5) is reported as > 12.5 µM and the IC50 (Beta-lactamase [1]) is reported as 0.046 µM. The IC50 (Beta-lactamase [2]) was 0.1 µM and the IC50 (Beta-lactamase [3]) was 26 µM.

`CO/N=C(/C(=O)NCP(=O)(O)Oc1ccc(C#N)c(F)c1)c1ccc(Cl)s1` gave an IC50 [4] of 16 µM, an IC50 (Beta-lactamase [1]) of 0.005 µM and an IC50 (Beta-lactamase [2]) of 0.019 µM. The IC50 (Beta-lactamase [3]) was 31 µM, the Activity (Pseudomonas aeruginosa [5]) was “Active” and the Activity (Pseudomonas aeruginosa [6]) was “Dose-dependent effect”. For the same compound, the Activity (Pseudomonas aeruginosa [7]) was “inactive”, the Activity (Acinetobacter baumannii [8]) was “inactive” and the Activity (Acinetobacter baumannii [9]) was “inactive”.

For `N#Cc1ccc(OP(=O)([O-])CNC(=O)/C(=N\OCCC[n+]2ccccc2)c2cccs2)cc1F` (stereo in doubt; 6b), the IC50 [4] was > 50 µM, the IC50 (Beta-lactamase SHV-5) was > 50 µM and the IC50 (Beta-lactamase [1]) was 0.087 µM. For the same compound, the IC50 (Beta-lactamase [2]) was 0.17 µM and the IC50 (Beta-lactamase [3]) was > 50 µM.

`CO/N=C(/C(=O)NCP(=O)(O)Oc1ccc(C#N)c(F)c1)c1cccs1` showed an IC50 [4] of 28 µM, an IC50 (Beta-lactamase SHV-5) of 22 µM and an IC50 (Beta-lactamase [1]) of 0.0075 µM. The IC50 (Beta-lactamase [2]) was 0.032 µM, the IC50 (Beta-lactamase [3]) was 17 µM and the Activity (Pseudomonas aeruginosa [5]) was “Active”. For the same compound, the Activity (Pseudomonas aeruginosa [6]) was “Dose-dependent effect”, the Activity (Pseudomonas aeruginosa [7]) was “inactive” and the Activity (Acinetobacter baumannii [8]) was “Active”. For the same compound, the Activity (Acinetobacter baumannii [9]) was “inactive”, the half-life [10] was 32.4 min and the AUC/dose (Mus musculus) was 0.98 µM/h/kg/mg. It also gave a clearance [11] of 43 mL/min/kg and a Vd [12] of 1 L/kg.

For `CO/N=C(\C(=O)NCP(=O)(O)Oc1ccc(C#N)c(F)c1)c1cnc(N)s1`, the IC50 [4] was > 50 µM, the IC50 (Beta-lactamase SHV-5) was > 50 µM and the IC50 (Beta-lactamase [1]) was 1.5 µM. The IC50 (Beta-lactamase [2]) was 0.8 µM and the IC50 (Beta-lactamase [3]) was > 50 µM.
